{
  "source": "patent US20240408100A1",
  "about": "“TREATMENT METHODS FOR SUBJECTS HAVING CANCER WITH A DYSREGULATED MAPK AND/OR PI3K PATHWAY” (TAIHO PHARMACEUTICAL CO., LTD., priority 2021, published 2024)",
  "assay_type_in_all_cases": "cell-based",
  "key": {"MCF7_NF1KD": {"system": "MCF7_NF1KD", "test": "growth inhibition, 3 days", "conditions": "Homo sapiens", "experimental": "(§1) MCF7 cells cultured in phenol red-free RPMI1640 medium containing 10% charcoal stripped FBS were transfected with NF1 siRNA to a final concentration of […] using Lipofectamine RNAiMAX. The cells were then incubated for 1 day at 37° C., 5% CO2. After that, E2 (estrogen) was added to the medium at 1 nmol/L final concentration, and the cells were cultured for 3 days, after which the cells were collected and cell extracts were prepared.\n(§2) To investigate the growth inhibition effect of Compound (1) on the NF1-depleted ER+/HER2− breast cancer cells, MCF7 and T47D, the serially diluted Compound (1) was exposed to the cells for 3 days as in the previous experiment.\n(§3) The growth inhibition curve in MCF7 and T47D cells were obtained and the half maximal inhibitory concentration (IC50) value of growth inhibition were calculated as shown in Table 1."}, "T47D_NF1KD": {"system": "T47D_NF1KD", "test": "growth inhibition, 3 days", "experimental": "as §1, §2, §3"}, "AsPC-1": {"system": "AsPC-1", "test": "3-day growth inhibition assay", "conditions": "Homo sapiens, ASPC1; AsPC-1 (Pancreas), KRAS p.G12D; read-out: Growth inhibition (IC50: nmol/L)", "experimental": "(§4) The IC50 values for each compound in cell lines used in a series of animal experiments evaluating the antitumor effects of Compound (1) on KRAS mutant tumor xenografts were determined by a 3-day growth inhibition assay (Table 7)."}, "LS180": {"system": "LS180", "test": "3-day growth inhibition assay", "conditions": "Homo sapiens; LS180 (Colon), KRAS p.G12D, PIK3CA p.H1047R, PTEN p.I67K; read-out: Growth inhibition (IC50: nmol/L)", "experimental": "as §4"}, "LU65": {"system": "LU65", "test": "3-day growth inhibition assay", "conditions": "Homo sapiens, Lu-65; LU65 (NSCLC), KRAS p.G12C; read-out: Growth inhibition (IC50: nmol/L)", "experimental": "as §4"}, "SW1573": {"system": "SW1573", "test": "3-day growth inhibition assay", "conditions": "Homo sapiens; SW1573 (NSCLC), KRAS p.G12C, PIK3CA p.K111E; read-out: Growth inhibition (IC50: nmol/L)", "experimental": "as §4"}, "[1]": {"system": "T47D cells (control and NF1 knockdown)", "test": "immunoblotting of target inhibition and apoptosis induction", "experimental": "To investigate the mechanism of action of Compound (1) in inhibiting the growth of NF1 knockdown breast cancer cells, Compound (1), trametinib, Alpelisib, and fulvestrant were exposed to NF1-knockdown MCF7 and T47D cells at indicated final concentration for 24 hours. NF1, pPRAS40 Thr246, pYB1 Ser102, pS6RP Ser235/236, ERα, and cleaved PARP were detected by immunoblotting."}, "[2]": {"conditions": "with estrogen, read-out: IC50 (nmol/L) E2 (+)"}, "[3]": {"conditions": "without estrogen, read-out: IC50 (nmol/L) E2 (−)"}},
  "note": "Like-named read-outs stand apart in the source and are kept apart here.",
  "data": [
    {"compound": "CC(C)(C)NCCNc1ccc(-c2nnc(C(F)(F)F)o2)nc1C1CCN(c2ncnc3c2C(C)(C)C(=O)N3)CC1", "note": "[Compound (1), 4-(4-(3-((2-(tert-butylamino)ethyl)amino)-6-(5-(trifluoromethyl)-1,3,4-oxadiazol-2-yl)pyridin-2-yl)piperidin-1-yl)-5,5-dimethyl-5H-pyrolo[2,3-d]pyrimidin-6(7H)-one]", "values": [
      {"measurement": "IC50", "setting": "MCF7_NF1KD; [2]", "value": 188, "unit": "nmol/L"},
      {"measurement": "IC50", "setting": "MCF7_NF1KD; [3]", "value": 294, "unit": "nmol/L"},
      {"measurement": "IC50", "setting": "T47D_NF1KD; [2]", "value": 37, "unit": "nmol/L"},
      {"measurement": "IC50", "setting": "T47D_NF1KD; [3]", "value": 111, "unit": "nmol/L"},
      {"measurement": "IC50", "setting": "AsPC-1", "value": 184, "unit": "nmol/L"},
      {"measurement": "IC50", "setting": "LS180", "value": 316, "unit": "nmol/L"},
      {"measurement": "IC50", "setting": "LU65", "value": 92.9, "unit": "nmol/L"},
      {"measurement": "IC50", "setting": "SW1573", "value": 139, "unit": "nmol/L"},
      {"measurement": "apoptosis induction (cleaved PARP signal)", "setting": "[1]; T47D NF1 knockdown cells versus control cells", "value": "remarkably higher level in NF1 knockdown cells than control cells"},
      {"measurement": "signals of pPRAS40, pYB1, and pS6RP (target inhibition)", "setting": "[1]; T47D, control and NF1 knockdown, 24 hours, immunoblot", "value": "decreased the signals of pPRAS40, pYB1, and pS6RP in a concentration-dependent manner"}
    ]}
  ]
}
